Data on nine compounds can be found in patent US8299023B2, “Neuropeptide-2 receptor (Y-2R) agonists” (Hoffmann-La Roche Inc., priority 2008, dated 2012).

The subject of test [1] is hypothalamic slices. The following applies: hypothalamic slices in vitro; cited from earlier work.
Test [2] addresses T1, Y1R (Homo sapiens, UniProt P25929).
T1 sequence (P25929 1-384): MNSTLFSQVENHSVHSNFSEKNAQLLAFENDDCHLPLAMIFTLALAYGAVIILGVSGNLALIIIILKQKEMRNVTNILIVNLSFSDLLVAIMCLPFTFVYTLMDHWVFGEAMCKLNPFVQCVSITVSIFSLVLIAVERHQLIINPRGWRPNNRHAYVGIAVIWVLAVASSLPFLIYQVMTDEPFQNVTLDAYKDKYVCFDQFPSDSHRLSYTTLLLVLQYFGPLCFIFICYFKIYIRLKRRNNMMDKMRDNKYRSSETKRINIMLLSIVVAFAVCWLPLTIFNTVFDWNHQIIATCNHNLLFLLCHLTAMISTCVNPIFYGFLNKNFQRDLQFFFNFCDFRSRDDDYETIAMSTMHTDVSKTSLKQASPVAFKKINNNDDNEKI
The test is described as follows: Ca flux assay (FLIPR), Y1R. In kind it is cell-based.

Test [3] has as its target Y4R (Homo sapiens, UniProt P50391). Briefly: Ca flux assay (FLIPR), Y4R. In kind it is cell-based.
In test [4] the target is T2, Y5R (Homo sapiens, UniProt Q15761).
T2 sequence (Q15761 1-445): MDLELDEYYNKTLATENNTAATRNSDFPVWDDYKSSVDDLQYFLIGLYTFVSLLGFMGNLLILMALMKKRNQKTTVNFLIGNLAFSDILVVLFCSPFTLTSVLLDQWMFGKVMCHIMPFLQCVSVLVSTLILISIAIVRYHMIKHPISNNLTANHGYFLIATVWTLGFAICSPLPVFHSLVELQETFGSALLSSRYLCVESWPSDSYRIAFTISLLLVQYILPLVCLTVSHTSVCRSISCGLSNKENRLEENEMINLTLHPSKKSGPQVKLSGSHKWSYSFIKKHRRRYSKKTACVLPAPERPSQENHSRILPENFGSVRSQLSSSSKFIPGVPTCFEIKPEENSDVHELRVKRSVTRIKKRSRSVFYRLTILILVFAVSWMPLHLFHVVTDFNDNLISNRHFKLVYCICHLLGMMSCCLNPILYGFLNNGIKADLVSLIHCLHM
Briefly: Ca flux assay (FLIPR), Y5R. It is filed as cell-based. The following applies: for Emax: read-out: Y5R FLIPR, percentage in brackets beside the EC50.

Test [5] has as its target T3, human NPY2-receptors (Homo sapiens, UniProt P49146).
T3 construct: expressed in transfected cells; host or cells: HEK293 (G418 selection in the medium)
T3 sequence (P49146 1-381): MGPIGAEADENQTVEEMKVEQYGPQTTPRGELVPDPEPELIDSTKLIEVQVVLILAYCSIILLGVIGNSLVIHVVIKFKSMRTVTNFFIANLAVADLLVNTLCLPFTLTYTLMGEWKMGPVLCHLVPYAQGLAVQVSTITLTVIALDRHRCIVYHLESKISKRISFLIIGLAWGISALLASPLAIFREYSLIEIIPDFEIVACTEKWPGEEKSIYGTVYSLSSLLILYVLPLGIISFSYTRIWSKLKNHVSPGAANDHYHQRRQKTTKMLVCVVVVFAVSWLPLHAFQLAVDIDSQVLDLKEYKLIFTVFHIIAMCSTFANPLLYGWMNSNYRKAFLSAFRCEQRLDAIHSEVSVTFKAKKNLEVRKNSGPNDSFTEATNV
The test is described as follows: cAMP agonist assay, Y2R. It is filed as cell-based.
Experimental: HEK293 cells expressing human NPY2-receptors were plated in a 384-well plate at a density of 9000 cells/well using a Multi-drop dispenser and the plates were grown overnight at 37° C.
The media and reagents were warmed to room temperature. Before the dilutions were prepared, the stock solution of NPY2-receptor ligands and controls in dimethyl sulphoxide (DMSO, Sigma Cat. #D2650) was allowed to warm up to 32° C. for 5-10 min.
The plating media was removed by gentle inversion of the 384-well plate on a paper towel and was replaced with incubation medium (50 μ/L well) containing various concentrations of NPY2-receptor ligands (four replicates/concentration). The plates were incubated at room temperature for 30 min. Following the 30 min treatment period, the incubation media was discarded and replaced with 50 μL/well of Assay Lysis Buffer (provided in the Tropix kit). The cells were lysed by incubating plates for 45 min @ 37° C. The lysate (20 μl) was transferred into the pre-coated antibody plates (384-well) supplied in the Tropix kit. AP conjugate (10 μL) and of anti-cAMP antibody (20 μL) was added to each well and the plates incubated on a shaker at room temperature for 1 h. The plates were washed 5 times with Wash Buffer (70 μL/well/wash) and the plates tapped dry. […] The signal in each well was measured (1 sec/well) using a Luminometer (VICTOR-V).

Y4R, sequence (P50391 whole entry): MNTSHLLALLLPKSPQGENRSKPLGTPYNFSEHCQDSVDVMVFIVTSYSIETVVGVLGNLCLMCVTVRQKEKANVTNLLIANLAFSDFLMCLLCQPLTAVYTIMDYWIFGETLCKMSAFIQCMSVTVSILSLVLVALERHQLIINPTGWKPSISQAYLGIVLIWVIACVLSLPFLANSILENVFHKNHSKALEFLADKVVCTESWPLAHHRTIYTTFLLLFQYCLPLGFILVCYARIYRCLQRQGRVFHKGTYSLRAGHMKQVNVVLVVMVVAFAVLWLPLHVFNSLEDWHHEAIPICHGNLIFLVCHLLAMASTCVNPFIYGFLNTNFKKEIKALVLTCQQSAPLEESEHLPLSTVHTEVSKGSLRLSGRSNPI

Regarding `N=C(N)NCCC[C@H](NC(=O)CC1(CC(=O)N2CCN(C3c4ccccc4NC(=O)c4ccccc43)CC2)CCCC1)C(=O)NCCn1c(=O)n(-c2ccccc2)n(-c2ccccc2)c1=O` (stereo partly shown) [BIIE0246], the NPY release result in test [1] is “increases NPY release”.
For the compound `CC[C@H](C)[C@H](NC(C)=O)C(=O)N[C@@H](CCCCN)C(=O)NCc1ccc(-c2cccc(CC(=O)N[C@@H](CCCNC(=N)N)C(=O)N[C@@H](Cc3c[nH]cn3)C(=O)N[C@@H](Cc3ccc(O)cc3)C(=O)N[C@@H](CC(C)C)C(=O)N[C@@H](CC(N)=O)C(=O)N[C@@H](Cc3c[nH]c4ccccc34)C(=O)N[C@H](C(=O)N[C@H](C(=O)N[C@@H](CCCNC(=N)N)C(=O)N[C@@H](CCC(N)=O)C(=O)N(C)[C@@H](CCCNC(=N)N)C(=O)N[C@@H](Cc3ccc(O)cc3)C(N)=O)[C@@H](C)O)C(C)C)c2)cc1` [Example 5], the EC50 in test [2], in test [3] and in test [4] was over 30 µM each time.
With `CC[C@H](C)[C@H](NC(C)=O)C(=O)N[C@@H](CCCCN)C(=O)N1CCN(c2ccc3c(ccn3CC(=O)N[C@@H](CCCNC(=N)N)C(=O)N[C@@H](Cc3c[nH]cn3)C(=O)N[C@@H](Cc3ccc(O)cc3)C(=O)N[C@@H](CC(C)C)C(=O)N[C@@H](CC(N)=O)C(=O)N[C@@H](Cc3c[nH]c4ccccc34)C(=O)N[C@H](C(=O)N[C@H](C(=O)N[C@@H](CCCNC(=N)N)C(=O)N[C@@H](CCC(N)=O)C(=O)N(C)[C@@H](CCCNC(=N)N)C(=O)N[C@@H](Cc3ccc(O)cc3)C(N)=O)[C@@H](C)O)C(C)C)c2)CC1` [Example 6], the EC50 (in general, the concentration giving half of the maximal effect) is over 30 µM in test [2], over 30 µM in test [3] and 10.7 µM in test [4].
Turning to `CC[C@H](C)[C@H](NC(C)=O)C(=O)N[C@@H](CCCCN)C(=O)N1CCCN(c2ccc3ncn(CC(=O)N[C@@H](CCCNC(=N)N)C(=O)N[C@@H](Cc4c[nH]cn4)C(=O)N[C@@H](Cc4ccc(O)cc4)C(=O)N[C@@H](CC(C)C)C(=O)N[C@@H](CC(N)=O)C(=O)N[C@@H](Cc4c[nH]c5ccccc45)C(=O)N[C@H](C(=O)N[C@H](C(=O)N[C@@H](CCCNC(=N)N)C(=O)N[C@@H](CCC(N)=O)C(=O)N(C)[C@@H](CCCNC(=N)N)C(=O)N[C@@H](Cc4ccc(O)cc4)C(N)=O)[C@@H](C)O)C(C)C)c(=O)c3c2)CC1` [Example 8], the EC50 in test [2] is over 9 µM; in test [3] it was over 9 µM; in test [4] it was 6.03 µM.
Take `CC[C@H](C)[C@H](NC(C)=O)C(=O)N[C@@H](CCCCN)C(=O)N1CCN(c2nc3ncn(CC(=O)N[C@@H](CCCNC(=N)N)C(=O)N[C@@H](Cc4c[nH]cn4)C(=O)N[C@@H](Cc4ccc(O)cc4)C(=O)N[C@@H](CC(C)C)C(=O)N[C@@H](CC(N)=O)C(=O)N[C@@H](Cc4c[nH]c5ccccc45)C(=O)N[C@H](C(=O)N[C@H](C(=O)N[C@@H](CCCNC(=N)N)C(=O)N[C@@H](CCC(N)=O)C(=O)N(C)[C@@H](CCCNC(=N)N)C(=O)N[C@@H](Cc4ccc(O)cc4)C(N)=O)[C@@H](C)O)C(C)C)c3c(=O)[nH]2)CC1` [Example 9]: the EC50 in test [2], in test [3] and in test [4] was over 9 µM throughout.
In the case of `CC[C@H](C)[C@H](NC(C)=O)C(=O)N[C@@H](CCCCN)C(=O)N1CCN(c2ncc3c(ncn3CC(=O)N[C@@H](CCCNC(=N)N)C(=O)N[C@@H](Cc3c[nH]cn3)C(=O)N[C@@H](Cc3ccc(O)cc3)C(=O)N[C@@H](CC(C)C)C(=O)N[C@@H](CC(N)=O)C(=O)N[C@@H](Cc3c[nH]c4ccccc34)C(=O)N[C@H](C(=O)N[C@H](C(=O)N[C@@H](CCCNC(=N)N)C(=O)N[C@@H](CCC(N)=O)C(=O)N(C)[C@@H](CCCNC(=N)N)C(=O)N[C@@H](Cc3ccc(O)cc3)C(N)=O)[C@@H](C)O)C(C)C)n2)CC1` [Example 10], the figures for the EC50 in test [2], in test [3] and in test [4] were over 5 µM, over 5 µM and 1.1 µM, respectively. For the same compound, the Emax in test [4] came out at 48%.
`CC[C@H](C)[C@H](NC(C)=O)C(=O)N[C@@H](CCCCN)C(=O)N1CCN(c2nc(N)c3c(ncn3CC(=O)N[C@@H](CCCNC(=N)N)C(=O)N[C@@H](Cc3c[nH]cn3)C(=O)N[C@@H](Cc3ccc(O)cc3)C(=O)N[C@@H](CC(C)C)C(=O)N[C@@H](CC(N)=O)C(=O)N[C@@H](Cc3c[nH]c4ccccc34)C(=O)N[C@H](C(=O)N[C@H](C(=O)N[C@@H](CCCNC(=N)N)C(=O)N[C@@H](CCC(N)=O)C(=O)N(C)[C@@H](CCCNC(=N)N)C(=O)N[C@@H](Cc3ccc(O)cc3)C(N)=O)[C@@H](C)O)C(C)C)n2)CC1` [Example 11]: the EC50 in test [5] was 0.00018 µM; in test [2], over 5 µM; in test [3], over 5 µM; in test [4], 3.3 µM. The Emax in test [4] was determined as 39%.
For the compound `CC[C@H](C)[C@H](NC(C)=O)C(=O)N[C@@H](CCCCN)C(=O)N1CC2CC1CC2c1ccc2ncn(CC(=O)N[C@@H](CCCNC(=N)N)C(=O)N[C@@H](Cc3c[nH]cn3)C(=O)N[C@@H](Cc3ccc(O)cc3)C(=O)N[C@@H](CC(C)C)C(=O)N[C@@H](CC(N)=O)C(=O)N[C@@H](Cc3c[nH]c4ccccc34)C(=O)N[C@H](C(=O)N[C@H](C(=O)N[C@@H](CCCNC(=N)N)C(=O)N[C@@H](CCC(N)=O)C(=O)N(C)[C@@H](CCCNC(=N)N)C(=O)N[C@@H](Cc3ccc(O)cc3)C(N)=O)[C@@H](C)O)C(C)C)c(=O)c2c1` (stereo partly shown) [Example 12], the results for the EC50 in test [2], in test [3] and in test [4] were over 5 µM, over 5 µM and 2.87 µM, respectively. Besides, the Emax in test [4] came to 43%.
As for `CC[C@H](C)[C@H](NC(C)=O)C(=O)N[C@@H](CCCCN)C(=O)N1CCN(c2ccc3ccn(CC(=O)N[C@@H](CCCNC(=N)N)C(=O)N[C@@H](Cc4c[nH]cn4)C(=O)N[C@@H](Cc4ccc(O)cc4)C(=O)N[C@@H](CC(C)C)C(=O)N[C@@H](CC(N)=O)C(=O)N[C@@H](Cc4c[nH]c5ccccc45)C(=O)N[C@H](C(=O)N[C@H](C(=O)N[C@@H](CCCNC(=N)N)C(=O)N[C@@H](CCC(N)=O)C(=O)N(C)[C@@H](CCCNC(=N)N)C(=O)N[C@@H](Cc4ccc(O)cc4)C(N)=O)[C@@H](C)O)C(C)C)c(=O)c3c2)CC1` [Example 13], the EC50 in test [5] was 0.00018 µM; in test [2], over 5 µM; in test [3] it was over 5 µM; in test [4] it was 2.34 µM. Moreover, the Emax in test [4] stood at 49%.
